In ChEMBL document CHEMBL1145583, “2,5-Diaminopyrimidines and 3,5-disubstituted azapurines as inhibitors of glycogen synthase kinase-3 (GSK-3)” (Bioorg Med Chem Lett, 2008):

What was measured:
[1] = biological target: T1, Glycogen synthase kinase-3 beta (Homo sapiens, UniProt P49841); assay: Inhibition of GSK3-beta
Target sequence in this assay (P49841 whole entry): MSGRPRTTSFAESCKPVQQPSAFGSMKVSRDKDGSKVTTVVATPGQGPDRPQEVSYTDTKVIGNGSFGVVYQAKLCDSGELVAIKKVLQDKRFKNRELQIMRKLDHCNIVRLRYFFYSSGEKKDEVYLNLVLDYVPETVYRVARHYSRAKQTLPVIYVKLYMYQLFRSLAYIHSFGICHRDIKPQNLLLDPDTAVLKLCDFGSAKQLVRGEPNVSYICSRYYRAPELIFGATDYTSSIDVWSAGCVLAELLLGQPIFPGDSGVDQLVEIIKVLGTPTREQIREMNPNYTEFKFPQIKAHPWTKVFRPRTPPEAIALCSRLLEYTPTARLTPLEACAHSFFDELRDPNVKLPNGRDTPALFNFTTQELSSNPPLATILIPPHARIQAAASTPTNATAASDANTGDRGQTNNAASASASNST

[2] = biological target: T2, Glycogen synthase kinase-3 alpha (Homo sapiens, UniProt P49840); assay: Inhibition of GSK3-alpha at 10 uM
Target sequence in this assay (P49840 2-483 limits assumed): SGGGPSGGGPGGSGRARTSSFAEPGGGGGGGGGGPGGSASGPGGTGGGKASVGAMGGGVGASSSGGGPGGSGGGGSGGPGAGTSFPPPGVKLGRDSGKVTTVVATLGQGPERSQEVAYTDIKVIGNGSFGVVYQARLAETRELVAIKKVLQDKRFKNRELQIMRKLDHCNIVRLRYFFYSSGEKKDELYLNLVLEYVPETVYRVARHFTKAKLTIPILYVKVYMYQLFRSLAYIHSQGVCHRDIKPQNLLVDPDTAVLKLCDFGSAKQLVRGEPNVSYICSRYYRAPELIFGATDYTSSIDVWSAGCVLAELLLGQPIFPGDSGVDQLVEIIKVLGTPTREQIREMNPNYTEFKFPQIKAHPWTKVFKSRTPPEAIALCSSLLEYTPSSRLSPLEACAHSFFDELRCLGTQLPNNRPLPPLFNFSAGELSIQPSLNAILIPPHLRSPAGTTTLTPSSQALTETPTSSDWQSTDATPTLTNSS

[3] = biological target: T1, Glycogen synthase kinase-3 beta; assay: Inhibition of GSK3-beta at 10 uM
Target sequence in this assay (P49841 whole entry, looked up): as the sequence (P49841 whole entry) above

[4] = biological target: T2, Glycogen synthase kinase-3 alpha; assay: Inhibition of GSK3alpha
Target sequence in this assay (P49840 whole entry): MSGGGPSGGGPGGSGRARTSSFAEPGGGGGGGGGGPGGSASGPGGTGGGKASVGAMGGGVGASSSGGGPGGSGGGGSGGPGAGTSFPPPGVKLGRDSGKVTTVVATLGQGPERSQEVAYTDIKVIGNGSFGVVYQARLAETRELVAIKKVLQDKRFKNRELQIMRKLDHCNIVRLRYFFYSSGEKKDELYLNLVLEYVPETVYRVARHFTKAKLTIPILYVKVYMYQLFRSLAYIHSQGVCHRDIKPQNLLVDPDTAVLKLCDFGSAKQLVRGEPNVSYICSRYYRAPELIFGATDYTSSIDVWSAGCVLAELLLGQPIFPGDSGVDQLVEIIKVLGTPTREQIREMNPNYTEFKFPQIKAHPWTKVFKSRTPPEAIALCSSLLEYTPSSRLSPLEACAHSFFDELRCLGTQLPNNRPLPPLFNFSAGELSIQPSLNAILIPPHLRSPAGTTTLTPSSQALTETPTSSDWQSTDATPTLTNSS

[5] = Tmax in rat at 20 mg/kg, po; format: ADME, organism-based; set-up: dose 20 mg/kg, route oral; settings: in vivo
[6] = Clearance in rat at 5 mg/kg, iv; format: ADME, organism-based; set-up: dose 5 mg/kg, route intravenous; settings: in vivo
[7] = biological target: T3, Aurora kinase A (Homo sapiens) (UniProt O14965); assay: Inhibition of Aurora A at 10 uM
T3 sequence (whole entry): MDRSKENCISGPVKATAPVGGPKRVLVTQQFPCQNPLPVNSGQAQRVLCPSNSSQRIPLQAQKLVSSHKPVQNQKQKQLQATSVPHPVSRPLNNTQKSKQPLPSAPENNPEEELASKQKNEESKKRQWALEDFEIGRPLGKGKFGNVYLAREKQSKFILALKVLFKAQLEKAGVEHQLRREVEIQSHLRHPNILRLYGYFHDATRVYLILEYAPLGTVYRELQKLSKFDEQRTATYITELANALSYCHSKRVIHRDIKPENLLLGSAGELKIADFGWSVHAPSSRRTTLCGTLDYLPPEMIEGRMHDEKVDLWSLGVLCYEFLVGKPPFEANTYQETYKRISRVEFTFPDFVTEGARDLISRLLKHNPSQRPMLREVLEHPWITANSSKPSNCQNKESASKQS

[8] = Cmax in rat at 20 mg/kg, po; format: ADME, organism-based; set-up: dose 20 mg/kg, route oral; settings: in vivo
[9] = AUC in rat at 20 mg/kg, po; format: ADME, organism-based; set-up: dose 20 mg/kg, route oral; settings: plasma
[10] = Volume of distribution at steady state in rat at 5 mg/kg, iv; format: ADME, organism-based; set-up: dose 5 mg/kg, route intravenous; settings: in vivo, read-out: Vdss
[11] = Half life in rat at 20 mg/kg, po; format: ADME, organism-based; set-up: dose 20 mg/kg, route oral; settings: in vivo
[12] = Oral bioavailability in rat at 20 mg/kg; format: ADME, organism-based; settings: in vivo
[13] = Half life in rat at 5 mg/kg, iv; format: ADME, organism-based; set-up: dose 5 mg/kg, route intravenous; settings: in vivo
[14] = AUC in rat at 5 mg/kg, iv; format: ADME, organism-based; set-up: dose 5 mg/kg, route intravenous; settings: plasma
[15] = Cmax in rat at 5 mg/kg, iv; format: ADME, organism-based; set-up: dose 5 mg/kg, route intravenous; settings: in vivo
Aurora kinase A = biological target: T4, Aurora kinase A (Homo sapiens, UniProt O14965); assay: Inhibition of Aurora A
T4 sequence (O14965 whole entry): T3 sequence (whole entry)

| SMILES | IC50 [1] | IC50 [4] | other results |
| --- | --- | --- | --- |
| O=[N+]([O-])c1cnc(Nc2ccccc2)nc1Nc1ccccc1 | 2800 nM | – | inhibition [2]: 52% |
| O=C(O)c1cccc(Nc2ncc3[nH]c(=O)n(-c4ccccc4)c3n2)c1 | – | – | inhibition [3]: 3%; inhibition [2]: 1% |
| O=C1CN(c2ccccc2)c2nc(Nc3ccc(C(=O)O)cc3)ncc2N1 | 3500 nM | 6700 nM | – |
| OC12CC3CC(C1)CC(Nc1nc(N[C@H]4CC[C@H](O)CC4)ncc1C(F)(F)F)(C3)C2 | 41 nM | 61 nM | Tmax [5]: 0.5 h; clearance [6]: 4.2 mL/min/kg; inhibition [7]: 45%; Cmax [8]: 5700 ng/mL; AUC [9]: 27400 ng·h/mL; Vd [10]: 0.3 L/kg; half-life [11]: 6.1 h; bioavailability [12]: 34%; half-life [13]: 3.7 h; AUC [14]: 20100 ng·h/mL; Cmax [15]: 24200 ng/mL |
| O=C(O)c1ccc(Nc2ncc3nnn(-c4ccccc4)c3n2)cc1 | 49 nM | 32 nM | IC50 (Aurora kinase A): 292 nM |
| O=C(O)c1ccc(Nc2ncc3nnn(C45CC6CC(CC(C6)C4)C5)c3n2)cc1 | 75 nM | 80 nM | IC50 (Aurora kinase A): 910 nM |
| O=C(O)c1ccc(Nc2ncc([N+](=O)[O-])c(Nc3ccccc3)n2)cc1 | 150 nM | 270 nM | IC50 (Aurora kinase A): 346 nM |
| OC12CC3CC(C1)CC(Nc1nc(N[C@H]4CC[C@H](O)CC4)ncc1Br)(C3)C2 | 125 nM | 91 nM | inhibition [7]: 69% |
| O=[N+]([O-])c1cnc(N[C@H]2CC[C@H](O)CC2)nc1NC12CC3CC(CC(O)(C3)C1)C2 | 198 nM | 123 nM | inhibition [7]: 33% |
| O=C(O)c1ccc(Nc2ncc3[nH]c(=O)n(-c4ccccc4)c3n2)cc1 | 4000 nM | – | inhibition [3]: 88%; inhibition [2]: 93% |
| O=C(O)c1ccc(Nc2ncc(C3C=NN=N3)c(Nc3ccccc3)n2)cc1 (stereo not drawn) | 1170 nM | 2850 nM | – |
| Cn1c(=O)c2cnc(Nc3ccc(C(=O)O)cc3)nc2n1-c1ccccc1 | 960 nM | 1020 nM | – |
| O=C(O)c1ccc(Nc2ncc3c(Cl)nn(-c4ccccc4)c3n2)cc1 | 180 nM | 350 nM | – |
| COC(=O)COc1ccc(Nc2ncc3nnn(-c4ccccc4)c3n2)cc1 | 477 nM | 204 nM | – |
| O=c1n(-c2ccccc2)c2nc(Nc3ccccc3)ncc2n1C1CCCCC1 | – | – | inhibition [3]: 14%; inhibition [2]: 16% |
| OC12CC3CC(C1)CC(Nc1nc(N[C@H]4CC[C@H](O)CC4)ncc1Cl)(C3)C2 | 230 nM | 133 nM | inhibition [7]: 65% |
| O=C(O)c1ccc(Nc2ncc(F)c(Nc3ccccc3)n2)cc1 | 4170 nM | 3760 nM | – |
| O=c1[nH]c2cnc(Nc3ccccc3)nc2n1-c1ccccc1 | – | – | inhibition [3]: 20%; inhibition [2]: -7% |
| O=C(O)COc1ccc(Nc2ncc3nnn(C45CC6CC(CC(O)(C6)C4)C5)c3n2)cc1 | 169 nM | 96 nM | – |
| CCCCOC(=O)c1ccc(Nc2ncc3[nH]c(=O)n(-c4ccccc4)c3n2)cc1 | – | – | inhibition [3]: -5%; inhibition [2]: 6% |
| O=C(O)/C=C\c1ccc(Nc2ncc3nnn(-c4ccccc4)c3n2)cc1 | 7 nM | 13 nM | IC50 (Aurora kinase A): 112 nM |
| O=C(O)COc1ccc(Nc2ncc([N+](=O)[O-])c(Nc3ccccc3)n2)cc1 | 92 nM | 74 nM | IC50 (Aurora kinase A): 85 nM |

| SMILES | IC50 [1] | IC50 [4] | other results |
| --- | --- | --- | --- |
| COc1nn(-c2ccccc2)c2nc(Nc3ccc(C(=O)O)cc3)ncc12 | 760 nM | 1900 nM | – |
| O=C(O)c1ccc(Nc2ncc(C(F)(F)F)c(Nc3ccccc3)n2)cc1 | 490 nM | 750 nM | – |
| O[C@H]1CC[C@H](Nc2ncc3nnn(-c4ccccc4)c3n2)CC1 | 279 nM | 123 nM | inhibition [7]: 25% |
| O=C(O)c1ccc(Nc2ncc(-c3ccncc3)c(Nc3ccccc3)n2)cc1 | 540 nM | 1870 nM | – |
| c1ccc(Nc2ncc3nnn(-c4ccccc4)c3n2)cc1 | 628 nM | 330 nM | – |
| O=[N+]([O-])c1cnc(N[C@H]2CC[C@H](O)CC2)nc1Nc1ccccc1 | 281 nM | 172 nM | – |
| O=C(O)c1ccc(Nc2ncc([N+](=O)[O-])c(NC34CC5CC(CC(O)(C5)C3)C4)n2)cc1 | 3 nM | 4.5 nM | IC50 (Aurora kinase A): 156 nM |
| O=C(O)c1ccc(Nc2ncc([N+](=O)[O-])c(NC34CC5CC(CC(C5)C3)C4)n2)cc1 | 26 nM | 34 nM | – |
| COC(=O)COc1ccc(Nc2ncc([N+](=O)[O-])c(Nc3ccccc3)n2)cc1 | – | – | inhibition [3]: 41% |
| CC(C)(C)n1c(=O)n(-c2ccccc2)c2nc(Nc3ccccc3)ncc21 | 2400 nM | – | inhibition [3]: 93%; inhibition [2]: 88% |
| OC12CC3CC(C1)CC(Nc1nc(N[C@H]4CC[C@H](O)CC4)ncc1F)(C3)C2 | – | 1500 nM | – |
| O=C(O)CCc1ccc(Nc2ncc([N+](=O)[O-])c(NC34CC5CC(CC(C5)C3)C4)n2)cc1 | 105 nM | 38 nM | – |
| CCn1c(=O)n(-c2ccccc2)c2nc(Nc3ccccc3)ncc21 | > 10000 nM | – | inhibition [3]: 78%; inhibition [2]: 73% |
| O=C1OC(Nc2ncc3nnn(-c4ccccc4)c3n2)c2ccccc21 (stereo not drawn) | 23 nM | 23 nM | IC50 (Aurora kinase A): 7300 nM |
| O=C(O)CCc1ccc(Nc2ncc3nnn(-c4ccccc4)c3n2)cc1 | 24 nM | 20 nM | IC50 (Aurora kinase A): 375 nM |
| O=C(O)c1ccc(Nc2ncc(Br)c(Nc3ccccc3)n2)cc1 | 3200 nM | – | inhibition [2]: 82% |
| O=C(O)COc1ccc(Nc2ncc3nnn(-c4ccccc4)c3n2)cc1 | 13 nM | 9 nM | IC50 (Aurora kinase A): 128 nM |
| OC12CC3CC(C1)CC(n1nnc4cnc(N[C@H]5CC[C@H](O)CC5)nc41)(C3)C2 | 744 nM | 444 nM | inhibition [7]: 23% |
| O=C(O)c1ccc(Nc2ncc3nnn(C45CC6CC(CC(O)(C6)C4)C5)c3n2)cc1 | 51 nM | 66 nM | – |
| Cn1c(=O)n(-c2ccccc2)c2nc(Nc3ccccc3)ncc21 | 1700 nM | – | inhibition [3]: 96%; inhibition [2]: 94% |
| CC(C)n1c(=O)n(-c2ccccc2)c2nc(Nc3ccccc3)ncc21 | 2900 nM | – | inhibition [3]: 71% |
